Organism: Rattus norvegicus
Assay: DrugMatrix - Regimen: Daily Repeat
Type: toxicity, organism-based, Sprague-Dawley
Design: regimen Daily Repeat, gender Male, age 6-8 weeks
Details: in vivo, po, route oral GAVAGE, […]; for ABSOLUTE BASOPHIL / ABSOLUTE EOSINOPHIL / ABSOLUTE LYMPHOCYTE / ABSOLUTE MONOCYTE / ABSOLUTE SEGMENTED NEUTROPHIL / BASOPHIL / EOSINOPHIL / ERYTHROCYTE COUNT / HEMATOCRIT / HEMOGLOBIN / LEUKOCYTE COUNT / LYMPHOCYTE / MEAN CORPUSCULAR HEMOGLOBIN / MEAN CORPUSCULAR HEMOGLOBIN CONCENTRATION / MEAN CORPUSCULAR VOLUME / MONOCYTE / NEUTROPHIL / NUCLEATED RED BLOOD CELLS / PLATELET COUNT: tissue Blood; for ALANINE AMINOTRANSFERASE / ALBUMIN / ALKALINE PHOSPHATASE / ASPARTATE AMINOTRANSFERASE / BLOOD UREA NITROGEN / CARBON DIOXIDE / CHLORIDE / CHOLESTEROL / CREATINE PHOSPHOKINASE / CREATININE / GLUCOSE / LACTATE DEHYDROGENASE / LIPASE / PHOSPHORUS / POTASSIUM / SODIUM / TOTAL BILIRUBIN / TOTAL PROTEIN / URIC ACID: tissue Plasma
[1] = 50 mg/kg, 120 h, dose level Low, time 5 day
[2] = 714 mg/kg, 72 h, dose level High, time 3 day
[3] = 714 mg/kg, 120 h, dose level High, time 5 day

Q: For `COC(=O)Nc1nc2ccc(C(=O)c3ccccc3)cc2[nH]1` [MEBENDAZOLE], which “ABSOLUTE BASOPHIL” value [1] is on record?
A: 0 CELLS/uL

Q: What about the “ABSOLUTE EOSINOPHIL” value [1] of the same compound?
A: 0 CELLS/uL

Q: What about the “ABSOLUTE LYMPHOCYTE” value [1] of the same compound?
A: 6435.67 CELLS/uL

Q: And the “ABSOLUTE MONOCYTE” value [1]?
A: 130 CELLS/uL

Q: And the “ABSOLUTE SEGMENTED NEUTROPHIL” value [1]?
A: 501 CELLS/uL

Q: What about the BASOPHIL [1] of the same compound?
A: 0%

Q: What about the EOSINOPHIL [1] of the same compound?
A: 0%

Q: And the “ERYTHROCYTE COUNT” value [1]?
A: 5.5 x10E6/uL

Q: And the HEMATOCRIT [1]?
A: 34.07%

Q: What about the HEMOGLOBIN [1] of the same compound?
A: 13.2 G/DL

Q: What about the “LEUKOCYTE COUNT” value [1] of the same compound?
A: 7.07 x10E3/uL

Q: And the LYMPHOCYTE [1]?
A: 91.33%

Q: What about the “MEAN CORPUSCULAR HEMOGLOBIN” value [1] of the same compound?
A: 23.93 pg

Q: And the “MEAN CORPUSCULAR HEMOGLOBIN CONCENTRATION” value [1]?
A: 38.77 G/DL

Q: What about the “MEAN CORPUSCULAR VOLUME” value [1] of the same compound?
A: 61.9 fL

Q: What about the MONOCYTE [1] of the same compound?
A: 1.67%

Q: What about the NEUTROPHIL [1] of the same compound?
A: 7%

Q: What about the “NUCLEATED RED BLOOD CELLS” value [1] of the same compound?
A: 0 /100WBC

Q: And the “PLATELET COUNT” value [1]?
A: 727.67 x10E3/uL

Q: What about the “ALANINE AMINOTRANSFERASE” value [1] of the same compound?
A: 57.67 u/L

Q: What about the ALBUMIN [1] of the same compound?
A: 4.23 G/DL

Q: What about the “ALKALINE PHOSPHATASE” value [1] of the same compound?
A: 399 u/L

Q: And the “ASPARTATE AMINOTRANSFERASE” value [1]?
A: 84.33 u/L

Q: What about the “BLOOD UREA NITROGEN” value [1] of the same compound?
A: 13 mg/dL

Q: And the “CARBON DIOXIDE” value [1]?
A: 30.67 mmol/L

Q: And the CHLORIDE [1]?
A: 101.67 MEQ/L

Q: What about the CHOLESTEROL [1] of the same compound?
A: 64.67 mg/dL

Q: What about the “CREATINE PHOSPHOKINASE” value [1] of the same compound?
A: 244 u/L

Q: And the CREATININE [1]?
A: 0.17 mg/dL

Q: What about the GLUCOSE [1] of the same compound?
A: 149 mg/dL

Q: What about the “LACTATE DEHYDROGENASE” value [1] of the same compound?
A: 129.33 u/L

Q: What about the LIPASE [1] of the same compound?
A: 9.33 u/L

Q: What about the PHOSPHORUS [1] of the same compound?
A: 9.77 mg/dL

Q: And the POTASSIUM [1]?
A: 5.24 MEQ/L

Q: What about the SODIUM [1] of the same compound?
A: 144.5 MEQ/L

Q: What about the “TOTAL BILIRUBIN” value [1] of the same compound?
A: 0.17 mg/dL

Q: And the “TOTAL PROTEIN” value [1]?
A: 6.13 G/DL

Q: What about the “URIC ACID” value [1] of the same compound?
A: 0.83 mg/dL

Q: And the “ABSOLUTE BASOPHIL” value [2]?
A: 0 CELLS/uL

Q: And the “ABSOLUTE EOSINOPHIL” value [2]?
A: 0 CELLS/uL

Q: And the “ABSOLUTE LYMPHOCYTE” value [2]?
A: 11722 CELLS/uL

Q: And the “ABSOLUTE MONOCYTE” value [2]?
A: 64.67 CELLS/uL

Q: And the “ABSOLUTE SEGMENTED NEUTROPHIL” value [2]?
A: 713.33 CELLS/uL

Q: And the BASOPHIL [2]?
A: 0%

Q: And the EOSINOPHIL [2]?
A: 0%

Q: What about the “ERYTHROCYTE COUNT” value [2] of the same compound?
A: 5.73 x10E6/uL

Q: What about the HEMATOCRIT [2] of the same compound?
A: 36.47%

Q: What about the HEMOGLOBIN [2] of the same compound?
A: 14.03 G/DL

Q: What about the “LEUKOCYTE COUNT” value [2] of the same compound?
A: 12.5 x10E3/uL

Q: And the LYMPHOCYTE [2]?
A: 93%

Q: And the “MEAN CORPUSCULAR HEMOGLOBIN” value [2]?
A: 24.53 pg

Q: What about the “MEAN CORPUSCULAR HEMOGLOBIN CONCENTRATION” value [2] of the same compound?
A: 38.5 G/DL

Q: And the “MEAN CORPUSCULAR VOLUME” value [2]?
A: 63.63 fL

Q: And the MONOCYTE [2]?
A: 0.67%

Q: What about the NEUTROPHIL [2] of the same compound?
A: 6.33%

Q: What about the “NUCLEATED RED BLOOD CELLS” value [2] of the same compound?
A: 0 /100WBC

Q: And the “PLATELET COUNT” value [2]?
A: 1226.67 x10E3/uL

Q: What about the “ALANINE AMINOTRANSFERASE” value [2] of the same compound?
A: 73 u/L

Q: And the ALBUMIN [2]?
A: 4.17 G/DL

Q: And the “ALKALINE PHOSPHATASE” value [2]?
A: 458.33 u/L

Q: And the “ASPARTATE AMINOTRANSFERASE” value [2]?
A: 86.67 u/L

Q: And the “BLOOD UREA NITROGEN” value [2]?
A: 12.33 mg/dL

Q: What about the “CARBON DIOXIDE” value [2] of the same compound?
A: 34.33 mmol/L

Q: And the CHLORIDE [2]?
A: 99 MEQ/L

Q: What about the CHOLESTEROL [2] of the same compound?
A: 68 mg/dL

Q: What about the “CREATINE PHOSPHOKINASE” value [2] of the same compound?
A: 464 u/L

Q: And the CREATININE [2]?
A: 0.15 mg/dL

Q: What about the GLUCOSE [2] of the same compound?
A: 137.67 mg/dL

Q: And the “LACTATE DEHYDROGENASE” value [2]?
A: 159.67 u/L

Q: What about the LIPASE [2] of the same compound?
A: 10 u/L

Q: What about the PHOSPHORUS [2] of the same compound?
A: 11.13 mg/dL

Q: What about the POTASSIUM [2] of the same compound?
A: 6.13 MEQ/L

Q: And the SODIUM [2]?
A: 144.4 MEQ/L

Q: What about the “TOTAL BILIRUBIN” value [2] of the same compound?
A: 0.2 mg/dL

Q: What about the “TOTAL PROTEIN” value [2] of the same compound?
A: 6.07 G/DL

Q: And the “URIC ACID” value [2]?
A: 0.6 mg/dL

Q: And the “ABSOLUTE BASOPHIL” value [3]?
A: 0 CELLS/uL

Q: What about the “ABSOLUTE EOSINOPHIL” value [3] of the same compound?
A: 0 CELLS/uL

Q: What about the “ABSOLUTE LYMPHOCYTE” value [3] of the same compound?
A: 8770.67 CELLS/uL

Q: And the “ABSOLUTE MONOCYTE” value [3]?
A: 141.33 CELLS/uL

Q: And the “ABSOLUTE SEGMENTED NEUTROPHIL” value [3]?
A: 488 CELLS/uL

Q: And the BASOPHIL [3]?
A: 0%

Q: And the EOSINOPHIL [3]?
A: 0%

Q: What about the “ERYTHROCYTE COUNT” value [3] of the same compound?
A: 5.57 x10E6/uL

Q: And the HEMATOCRIT [3]?
A: 35.9%

Q: What about the HEMOGLOBIN [3] of the same compound?
A: 13.67 G/DL

Q: And the “LEUKOCYTE COUNT” value [3]?
A: 9.4 x10E3/uL

Q: What about the LYMPHOCYTE [3] of the same compound?
A: 93%

Q: And the “MEAN CORPUSCULAR HEMOGLOBIN” value [3]?
A: 24.57 pg

Q: And the “MEAN CORPUSCULAR HEMOGLOBIN CONCENTRATION” value [3]?
A: 38.1 G/DL

Q: And the “MEAN CORPUSCULAR VOLUME” value [3]?
A: 64.5 fL

Q: What about the MONOCYTE [3] of the same compound?
A: 1.67%

Q: And the NEUTROPHIL [3]?
A: 5.33%

Q: And the “NUCLEATED RED BLOOD CELLS” value [3]?
A: 0.33 /100WBC

Q: And the “PLATELET COUNT” value [3]?
A: 1199 x10E3/uL

Q: What about the “ALANINE AMINOTRANSFERASE” value [3] of the same compound?
A: 60.67 u/L

Q: And the ALBUMIN [3]?
A: 4.1 G/DL

Q: What about the “ALKALINE PHOSPHATASE” value [3] of the same compound?
A: 481.33 u/L

Q: And the “ASPARTATE AMINOTRANSFERASE” value [3]?
A: 90.67 u/L

Q: What about the “BLOOD UREA NITROGEN” value [3] of the same compound?
A: 14 mg/dL

Q: And the “CARBON DIOXIDE” value [3]?
A: 32.67 mmol/L

Q: And the CHLORIDE [3]?
A: 99.67 MEQ/L

Q: And the CHOLESTEROL [3]?
A: 65 mg/dL

Q: And the “CREATINE PHOSPHOKINASE” value [3]?
A: 401 u/L

Q: What about the CREATININE [3] of the same compound?
A: 0.21 mg/dL

Q: What about the GLUCOSE [3] of the same compound?
A: 145.33 mg/dL

Q: What about the “LACTATE DEHYDROGENASE” value [3] of the same compound?
A: 142.67 u/L

Q: And the LIPASE [3]?
A: 11.67 u/L

Q: What about the PHOSPHORUS [3] of the same compound?
A: 10.2 mg/dL

Q: And the POTASSIUM [3]?
A: 5.58 MEQ/L

Q: And the SODIUM [3]?
A: 146.1 MEQ/L

Q: What about the “TOTAL BILIRUBIN” value [3] of the same compound?
A: 0.2 mg/dL

Q: What about the “TOTAL PROTEIN” value [3] of the same compound?
A: 5.97 G/DL

Q: What about the “URIC ACID” value [3] of the same compound?
A: 0.5 mg/dL

Source: ChEMBL document CHEMBL3885881, “DrugMatrix”
